{"source": "paper PMC8567874", "about": "“Metronomic delivery of orally available pemetrexed-incorporated colloidal dispersions for boosting tumor-specific immunity” (Drug Delivery, 2021)", "key": {"[1]": {"assay": "Octanol/water apparent partition coefficient", "type": "physicochemical", "conditions": "n = 4, read-out: Log P (logarithm of the octanol/water partition coefficient)", "excerpt": "^aLogarithm of the octanol/water partition coefficient. Each value represents the mean ± standard deviation (n = 4)."}, "[2]": {"assay": "In situ single-pass rat intestinal perfusion", "type": "in vivo", "conditions": "other: in situ single-pass intestinal perfusion; for concentration at 15 min / concentration at 30 min / concentration at 45 min / concentration at 60 min / concentration at 75 min / concentration at 90 min / concentration at 105 min / concentration at 120 min: rat, outlet intestinal perfusate, 100 μg/mL, rat intestinal perfusion", "method": "The in situ single-pass intestinal effective permeabilities (Peff) of PMX, PMX/DL(1:1), PMX/DL(1:2), PMX/DL(1:1)-CD, and PMX/DL(1:2)-CD were investigated in rats. The rats were fasted overnight for 12–16 h with free access to water before the experiment and then anesthetized by intramuscular injection of tiletamine·HCl–zolazepam mixture (1:1 [w/w]; 40 mg/kg). With the animal in the supine position, the abdominal cavity was opened using a midline longitudinal incision, and the intestine (duodenum, jejunum, and ileum) was exposed and subsequently intubated at the two ends with a polypropylene perfusion tube connected to a peristaltic pump (Harvard Apparatus, Holliston, MA, USA). After covering the entire excised area with a cotton pad soaked with warm normal saline, the cannulated intestinal segments were flushed with blank perfusion buffer at 37 °C for 30 min, at a constant flow rate of 0.5 mL/min, to remove residual intestinal contents. Then, drug solutions of PMX, PMX/DL(1:1), PMX/DL(1:2), PMX/DL(1:1)-CD, or PMX/DL(1:2)-CD (equivalent to 100 μg/mL PMX) were perfused through the intestinal lumen at 37 °C and a constant flow rate of 0.2 mL/min. After allowing 30 min to achieve a steady-state, outlet perfusate was collected every 15 min for 120 min. In addition, to assess the reliability of the perfusion study, 100 μg/mL fluorescein diluted in perfusion buffer was perfused separately under the same conditions and the collected samples were analyzed at excitation/emission wavelengths of 494/512 nm using a microplate reader (PerkinElmer multimode plate reader; PerkinElmer, Waltham, MA, USA) as a low-permeability marker. During the experiment, all animals were kept on heated pads under a heat lamp to maintain a normal body temperature. At the end of the experiment, the lengths and radii of the cannulated intestinal segments were measured, taking care to avoid stretching them. The collected samples were then filtered using 0.45-μm PVDF filters and stored at −20 °C before analyses. The outlet concentration of PMX in the perfusate was analyzed by HPLC as described above. In addition, the errors caused by rat intestinal water absorption and secretion during perfusion were corrected by the net water flux (ratio of the […] perfusate flows, Qout/Qin) and the corrected drug concentration in perfusate for each formulation was calculated based on the following equation (i.e. gravimetric method): Cout,corr = Cout × (Qout/Qin), where Cout,corr is the corrected outlet PMX concentration (µg/mL), Cout is the PMX outlet concentration (µg/mL), Qin (mL/min) is the flow rate entering the intestine, and Qout (mL/min) is the measured perfusate exit flow (net weight/15 min, assumed density of 1.0 g/mL) for the specified time interval. After correction, the Peff was calculated using the equation: Peff = Qin/A × ln(Cout,corr/Cin), where A is the intestinal area available for absorption (2πrl) based on its length (l) and radius (r)."}, "[3]": {"test_system": "CT26.CL25 tumor-bearing mice", "assay": "In vivo immunostimulatory effects in CT26.CL25 tumor-bearing mice (flow cytometry, ELISPOT, slide staining)", "conditions": "3 weeks, PMX 150 mg/kg IV every 3 weeks, PMX/DL-CD oral daily 20 mg/kg PMX", "method": "To investigate in vivo immunostimulatory effects of oral metronomic PMX, BALB/c mice were inoculated with 1 × 10^6 of CT26.CL25 cells per mouse. The mice were randomly divided into three groups (10 mice per group) once the tumor volume had reached 50–70 mm^3: control (untreated), PMX-IV (150 mg/kg PMX administered IV every 3 weeks), and PMX/DL-CD (oral PMX/DL(1:1)-CD administered daily, equivalent to 20 mg/kg PMX). The mice were sacrificed 3 weeks after treatment and the tumors were isolated. The tumor tissues were converted into single cells by passing them through a 40-µm filter after digestion with collagenase A (0.2% w/v), DNAse (30 U/mL), and dispase (10 U/mL) in MACS (gentleMACS Octo Dissociator with Heaters; Miltenyi Biotec, Bergisch Gladbach, Germany) at 37 °C for 45 min. Some cells were collected for tumor-infiltrating lymphocyte analyses and centrifuged using histopaque-1077 for 20 min at 450 g to isolate the lymphocytes. The isolated cells were then stained with fluorescence-conjugated antibodies and incubated. The cells were washed and suspended in FACS buffer and then collected into FACS tubes. The cells were then analyzed using flow cytometry (FACS Aria II) and the data were analyzed using FlowJo software (FlowJo LLC, Ashland, OR, USA). Cell populations were acquired by gating, as follows: tumor-infiltrating lymphocytes (DAPI^−/CD45^+), helper T cells (DAPI^−/CD45^+/CD3^+/CD4^+), PD-L1-expressing tumor cells (DAPI^−/CD45^−/PD-L1^+), proliferating cytotoxic T cells (DAPI^−/CD45^+/CD3^+/CD8^+/ki67^+), and IFN-γ-secreting T cells (DAPI^−/CD45^+/CD3^+/CD8^+/IFN-γ^+).\nLymphocytes were isolated from the tumors using the procedure described previously; 2 × 10^5 tumor lymphocytes per well, along with β-gal (5 µg/mL), were incubated on pre-coated 96-well plates in CTL test medium for 24 h at 37 °C with 9% CO2. […] After the procedure, the plates were scanned and the spots were counted in the ELISpot counter (Immunospot® S6 ULTIMATE analyzer; Cellular Technology Ltd.). […]"}, "[4]": {"test_system": "CT26.CL25 tumor-bearing mice", "type": "in vivo", "conditions": "27 days after drug treatment, IV 150 mg/kg PMX", "description": "To investigate the antitumor efficacy of oral PMX/DL(1:1)-CD and IV PMX given in combination with intraperitoneal aPD-1, 1 × 10^6 of CT26.CL25 cells in 100 µL of PBS (pH 7.4) were subcutaneously inoculated into each BALB/c mouse. When the average tumor volume reached 50–70 mm^3, mice were randomly divided into seven groups (10 mice per group): control (untreated), PMX-IV (150) (IV administration of 150 mg/kg PMX once every 3 weeks), aPD-1 (10) (intraperitoneal administration of 10 mg/kg aPD-1 once every 3 days), PMX-Oral (20) (once-daily oral administration equivalent to 20 mg/kg PMX), PMX/DL-CD (20) [once-daily oral administration PMX/DL(1:1)-CD equivalent to 20 mg/kg PMX], PMX-IV (150) + aPD-1 (10) (combination of IV administration of 150 mg/kg PMX once every 3 weeks, and intraperitoneal administration of 10 mg/kg aPD-1 once every 3 days), and PMX/DL-CD (20) + aPD-1 (10) (a combination of once-daily oral administration of PMX/DL(1:1)-CD equivalent to 20 mg/kg PMX and intraperitoneal administration of 10 mg/kg aPD-1 once every 3 days). During treatments, body weights and tumor volumes of mice in all seven groups were monitored once every 3 days, for 27 days. Tumor volumes in each mouse were calculated based on the following formula: 0.52 × a^2 × b, where a and b were the tumor widths and lengths, respectively."}, "[5]": {"conditions": "read-out: Corrected outlet PMX concentration (Cout,corr)"}, "[6]": {"conditions": "read-out: Outlet concentration of PMX (Cout)"}}, "note": "Like-named read-outs stand apart in the source and are kept apart here."}
{"smiles": "Nc1nc2[nH]cc(CCc3ccc(C(=O)N[C@@H](CCC(=O)O)C(=O)O)cc3)c2c(=O)[nH]1", "note": "[PMX, Pemetrexed]", "values": [{"measurement": "logP", "setting": "[1]", "result": "-1.14 ± 0.01"}, {"measurement": "Papp at 120 min, 100 μg/mL", "setting": "[2]; rat intestine, n = 4, read-out: Effective permeability (Peff)", "result": "83 ± 4.4", "unit": "×10⁻⁶ cm/s"}, {"measurement": "concentration at 15 min", "setting": "[2]; [5]", "result": "93.8 ± 2.73", "unit": "µg/mL"}, {"measurement": "concentration at 15 min", "setting": "[2]; [6]", "result": "93.1 ± 1.73", "unit": "µg/mL"}, {"measurement": "concentration at 30 min", "setting": "[2]; [5]", "result": "96 ± 1.36", "unit": "µg/mL"}, {"measurement": "concentration at 30 min", "setting": "[2]; [6]", "result": "93.2 ± 0.04", "unit": "µg/mL"}, {"measurement": "concentration at 45 min", "setting": "[2]; [5]", "result": "94.1 ± 0.46", "unit": "µg/mL"}, {"measurement": "concentration at 45 min", "setting": "[2]; [6]", "result": "92.5 ± 0.51", "unit": "µg/mL"}, {"measurement": "concentration at 60 min", "setting": "[2]; [5]", "result": "95.4 ± 0.19", "unit": "µg/mL"}, {"measurement": "concentration at 60 min", "setting": "[2]; [6]", "result": "94.9 ± 0.19", "unit": "µg/mL"}, {"measurement": "concentration at 75 min", "setting": "[2]; [5]", "result": "95.8 ± 0.87", "unit": "µg/mL"}, {"measurement": "concentration at 75 min", "setting": "[2]; [6]", "result": "94.7 ± 1.19", "unit": "µg/mL"}, {"measurement": "concentration at 90 min", "setting": "[2]; [5]", "result": "96.5 ± 0.54", "unit": "µg/mL"}, {"measurement": "concentration at 90 min", "setting": "[2]; [6]", "result": "95.3 ± 0.87", "unit": "µg/mL"}, {"measurement": "concentration at 105 min", "setting": "[2]; [5]", "result": "95.8 ± 0.27", "unit": "µg/mL"}, {"measurement": "concentration at 105 min", "setting": "[2]; [6]", "result": "94.7 ± 1.92", "unit": "µg/mL"}, {"measurement": "concentration at 120 min", "setting": "[2]; [5]", "result": "96.4 ± 1.52", "unit": "µg/mL"}, {"measurement": "concentration at 120 min", "setting": "[2]; [6]", "result": "94.7 ± 1.82", "unit": "µg/mL"}, {"measurement": "CD4+ T-cell population in tumor compared to control", "setting": "[3]", "result": "substantially increased"}, {"measurement": "CD45+ cell infiltration in tumor compared to control", "setting": "[3]", "result": "slightly increased"}, {"measurement": "PD-L1 expression in tumor cells, times greater compared to the control group", "setting": "[3]", "result": "two"}, {"measurement": "Mice alive (survival)", "setting": "[4]", "result": 50, "unit": "%"}]}
